This is an account of results in ChEMBL document CHEMBL1201862, “PubChem BioAssay data set” (2004).

Molecules are shown by their SMILES.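 Exposure lasted 48 hours, with cells grown in 96-well plates and compounds tested at five concentrations. Here, GI50 denotes the concentration required for 50% inhibition of growth.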 Active and inactive are the calls of the source. Cut-off read from the data, not from the text of the source: active = GI50 up to about 1.1 µM and inactive = higher.

Among the test systems are A498; ACHN; BT-549; CAKI-1; DU-145; Hs-578T; K562; KM12; LOX IMVI; MDA-MB-435; MDA-N; Malme-3M; NCI-H23; NCI/ADR-RES; OVCAR-5; SK-MEL-28; SK-OV-3; SNB-75; SR.
What all share (assay): NCI-60 cell line screen, 48 h

As for `CC(=O)NNc1nc(-c2ccc([N+](=O)[O-])cc2)c(C#N)c(=O)n1C`, the GI50 in the experiment on A498 is 25.5 µM (inactive); in the experiment with ACHN, > 100 µM (inactive); with BT-549 it was 1.88 µM (inactive); in the experiment with CAKI-1, 79.8 µM (inactive); in the experiment on DU-145, 34.2 µM (inactive); with Hs-578T, 27.1 µM (inactive). The GI50 is 24.3 µM (inactive) in the experiment with K562; 54.1 µM (inactive) in the experiment with KM12; 16.9 µM (inactive) with LOX IMVI; 50.6 µM (inactive) with MDA-MB-435; 86.7 µM (inactive) in the experiment with MDA-N; > 100 µM (inactive) with Malme-3M. Further, the GI50 in the experiment on NCI-H23 was 29.4 µM (inactive); in the experiment on NCI/ADR-RES, > 100 µM (inactive); in the experiment on OVCAR-5, 27.5 µM (inactive); in the experiment with SK-MEL-28, > 100 µM (inactive); in the experiment with SK-OV-3 it was > 100 µM (inactive); in the experiment on SNB-75, 18.9 µM (inactive). In the experiment with SR, the GI50 is 13.9 µM (inactive).

As for `Cc1ccc(S(=O)(=O)n2cc(/C=C/C#N)c(-c3cn(S(=O)(=O)c4ccc(C)cc4)cc3-c3cn(S(=O)(=O)c4ccc(C)cc4)cc3/C=C/C#N)c2)cc1`, the GI50 with A498 is > 100 µM (inactive); in the experiment with ACHN, > 100 µM (inactive); with BT-549, > 100 µM (inactive); in the experiment on CAKI-1, > 100 µM (inactive); in the experiment with DU-145 it was > 100 µM (inactive); in the experiment on Hs-578T, 90.2 µM (inactive). Moreover, the GI50 is 57.4 µM (inactive) in the experiment with K562; 91.6 µM (inactive) in the experiment on KM12; 93.8 µM (inactive) in the experiment on LOX IMVI; > 100 µM (inactive) with MDA-MB-435; > 100 µM (inactive) in the experiment on MDA-N; > 100 µM (inactive) in the experiment with Malme-3M. The GI50 was 87.7 µM (inactive) in the experiment with NCI-H23; > 100 µM (inactive) with NCI/ADR-RES; > 100 µM (inactive) with OVCAR-5; > 100 µM (inactive) in the experiment on SK-OV-3; > 100 µM (inactive) in the experiment on SNB-75; > 100 µM (inactive) in the experiment on SR.

For `CCN(CC)C(=S)SNc1ccc(S(N)(=O)=O)cc1`, the GI50 in the experiment on A498 was > 100 µM (inactive); in the experiment with ACHN, 45.1 µM (inactive); with BT-549, 67.8 µM (inactive); in the experiment with CAKI-1, 36.8 µM (inactive); in the experiment on DU-145, > 92.9 µM (inactive); in the experiment with Hs-578T, > 100 µM (inactive). Moreover, the GI50 is > 100 µM (inactive) with K562; > 71.6 µM (inactive) in the experiment with KM12; 38.9 µM (inactive) with LOX IMVI; > 57.7 µM (inactive) in the experiment with MDA-MB-435; 69.3 µM (inactive) in the experiment on MDA-N; 42.1 µM (inactive) in the experiment on Malme-3M. Further, the GI50 in the experiment with NCI-H23 is > 100 µM (inactive); in the experiment on NCI/ADR-RES, > 83.6 µM (inactive); in the experiment with OVCAR-5 it was 28.4 µM (inactive); with SK-MEL-28 it was 33.4 µM (inactive); in the experiment on SK-OV-3 it was > 100 µM (inactive); in the experiment with SNB-75, > 72.9 µM (inactive). The GI50 with SR is 33.2 µM (inactive).

Take `Nc1ccn(C2OC(COP(=O)(O)OCC3OC(n4cc(F)c(=O)[nH]c4=O)CC3O)C(O)C2O)c(=O)n1` (stereo not given): the GI50 was 0.225 µM (active) in the experiment on A498; 0.0447 µM (active) in the experiment with ACHN; > 37.6 µM (inactive) with BT-549; 0.508 µM (active) in the experiment with CAKI-1; 0.0828 µM (active) in the experiment on DU-145; > 100 µM (inactive) with Hs-578T. For the same compound, the GI50 is > 100 µM (inactive) in the experiment on K562; > 100 µM (inactive) with KM12; 0.0353 µM (active) in the experiment with LOX IMVI; 1.58 µM (inactive) in the experiment with MDA-MB-435; 26.4 µM (inactive) in the experiment on MDA-N; 3.07 µM (inactive) in the experiment with Malme-3M. Besides, the GI50 in the experiment with NCI-H23 is 0.314 µM (active); in the experiment with NCI/ADR-RES it was 9.23 µM (inactive); with OVCAR-5, > 100 µM (inactive); with SK-MEL-28, > 25.5 µM (inactive); with SK-OV-3, 26.7 µM (inactive); in the experiment on SNB-75, > 48.3 µM (inactive). The GI50 in the experiment with SR is < 0.01 µM (active).

In the case of `CCCn1c2c(c3ccccc3c1=O)C(=O)c1ccccc1-2`, the GI50 with A498 was > 48.4 µM (inactive); with ACHN, 53.6 µM (inactive); with BT-549, > 100 µM (inactive); in the experiment with CAKI-1 it was 48.3 µM (inactive); with DU-145, > 48.2 µM (inactive); in the experiment with Hs-578T, 44.5 µM (inactive). Besides, the GI50 with K562 was > 100 µM (inactive); with KM12, 20.7 µM (inactive); in the experiment with LOX IMVI it was > 100 µM (inactive); in the experiment on MDA-MB-435 it was > 100 µM (inactive); in the experiment on MDA-N, > 100 µM (inactive); with Malme-3M, 76.7 µM (inactive). Also, the GI50 in the experiment with NCI-H23 was > 68.9 µM (inactive); in the experiment on NCI/ADR-RES, > 100 µM (inactive); in the experiment on OVCAR-5, > 100 µM (inactive); in the experiment on SK-MEL-28 it was > 68.9 µM (inactive); with SK-OV-3, > 100 µM (inactive); in the experiment on SNB-75, > 48.8 µM (inactive). Besides, in the experiment with SR, the GI50 is 5.14 µM (inactive).

Consider `O=C(O)c1nn(-c2ccccc2-c2nnc(O)nc2O)c(=O)[nH]c1=O`, for which the GI50 in the experiment with A498, in the experiment with ACHN, in the experiment with BT-549, in the experiment on CAKI-1, in the experiment on DU-145 and with Hs-578T was > 100 µM (inactive) throughout. Further, the GI50 in the experiment on K562 was 2.47 µM (inactive); in the experiment on KM12 it was > 100 µM (inactive); in the experiment with LOX IMVI, > 100 µM (inactive); with MDA-MB-435, > 100 µM (inactive); with MDA-N, > 100 µM (inactive); in the experiment with Malme-3M, > 100 µM (inactive). For the same compound, the GI50 in the experiment with NCI-H23, in the experiment on NCI/ADR-RES, in the experiment on OVCAR-5, in the experiment on SK-MEL-28, in the experiment on SK-OV-3 and in the experiment on SNB-75 was > 100 µM (inactive) throughout. The GI50 with SR was > 100 µM (inactive).

Take `Nc1nc(Sc2ccc([N+](=O)[O-])c3nonc23)c2nc[nH]c2n1`: the GI50 in the experiment with A498 was 13.7 µM (inactive); with ACHN it was 2.22 µM (inactive); in the experiment with BT-549, 2.07 µM (inactive); in the experiment with CAKI-1 it was 0.36 µM (active); in the experiment on DU-145, 0.705 µM (active); in the experiment on Hs-578T it was 6.58 µM (inactive). The GI50 with K562 was 0.369 µM (active); in the experiment with KM12, 3.21 µM (inactive); with LOX IMVI, 0.232 µM (active); in the experiment with MDA-MB-435, 0.59 µM (active); in the experiment on MDA-N, 0.91 µM (active); in the experiment on Malme-3M, 1.02 µM (active). The GI50 in the experiment with NCI-H23 was 2.25 µM (inactive); in the experiment on NCI/ADR-RES, 0.495 µM (active); in the experiment with OVCAR-5 it was 1.02 µM (active); with SK-MEL-28, 10.5 µM (inactive); with SK-OV-3 it was 0.425 µM (active); with SNB-75, 3.31 µM (inactive). In addition, the GI50 in the experiment on SR is 0.0822 µM (active).

Consider `OC(c1cc(-c2ccccc2)nc2c1ccc1ccccc12)C1CCCCN1` (stereo not given), for which the GI50 in the experiment on A498 is 1.92 µM (inactive); in the experiment on ACHN, 1.83 µM (inactive); with BT-549, 3.97 µM (inactive); in the experiment on CAKI-1 it was 1.91 µM (inactive); in the experiment on DU-145, 2.02 µM (inactive); with Hs-578T, 1.51 µM (inactive). Further, the GI50 in the experiment on K562 is 2.54 µM (inactive); in the experiment with KM12 it was 1.86 µM (inactive); in the experiment on LOX IMVI, 1.11 µM (active); with MDA-MB-435, 1.83 µM (inactive); with MDA-N, 1.64 µM (inactive); in the experiment on Malme-3M, 1.38 µM (inactive). Moreover, the GI50 in the experiment with NCI-H23 was 1.95 µM (inactive); in the experiment with NCI/ADR-RES it was 2.1 µM (inactive); in the experiment on OVCAR-5, 1.6 µM (inactive); in the experiment with SK-MEL-28, 1.81 µM (inactive); in the experiment on SK-OV-3, 1.88 µM (inactive); in the experiment with SNB-75, 1.98 µM (inactive). For the same compound, the GI50 in the experiment on SR is 1.18 µM (inactive).

In the case of `O=C(CN1CCNCCN(CC(=O)N2CCCCC2)CCNCC1)N1CCCCC1`, the GI50 in the experiment on A498, in the experiment with ACHN, in the experiment on BT-549, with CAKI-1, in the experiment with DU-145 and with Hs-578T was > 100 µM (inactive) in each case. The GI50 with K562 was 40.3 µM (inactive); with KM12 it was 17.6 µM (inactive); in the experiment with LOX IMVI, > 100 µM (inactive); with MDA-MB-435, > 100 µM (inactive); in the experiment on MDA-N it was > 100 µM (inactive); in the experiment on Malme-3M, > 100 µM (inactive). Also, the GI50 was > 100 µM (inactive) in the experiment on NCI/ADR-RES; > 100 µM (inactive) with OVCAR-5; > 100 µM (inactive) in the experiment with SK-MEL-28; > 100 µM (inactive) in the experiment with SK-OV-3; > 100 µM (inactive) in the experiment on SNB-75; 34.4 µM (inactive) in the experiment on SR.

With `CC1(C)NC2C(=O)c3c([nH]c4ccccc34)[C@]3(C)CCC1CC23` (stereo not given in full), the GI50 in the experiment on A498, with ACHN, with BT-549, in the experiment on CAKI-1, with DU-145 and in the experiment with Hs-578T was > 100 µM (inactive) throughout. Further, the GI50 was 96.8 µM (inactive) with K562; > 100 µM (inactive) in the experiment on KM12; > 100 µM (inactive) in the experiment with LOX IMVI; > 100 µM (inactive) in the experiment with MDA-MB-435; > 100 µM (inactive) with MDA-N; > 100 µM (inactive) in the experiment on Malme-3M. In addition, the GI50 is > 100 µM (inactive) in the experiment on NCI-H23; > 100 µM (inactive) with NCI/ADR-RES; > 100 µM (inactive) with OVCAR-5; > 100 µM (inactive) in the experiment on SK-MEL-28; > 100 µM (inactive) in the experiment with SNB-75; 55.2 µM (inactive) in the experiment with SR.

On to `CC(C)n1c2c(c3ccccc3c1=O)C(=O)c1ccccc1-2`, for which the GI50 in the experiment with A498, with BT-549, in the experiment on CAKI-1, in the experiment with DU-145, in the experiment with Hs-578T and in the experiment with K562 was > 100 µM (inactive) in each case. The GI50 with KM12, in the experiment with LOX IMVI, in the experiment on MDA-MB-435, in the experiment with MDA-N, in the experiment on Malme-3M and in the experiment with NCI-H23 was > 100 µM (inactive) each time. Also, the GI50 with NCI/ADR-RES, in the experiment on OVCAR-5, with SK-MEL-28, in the experiment with SK-OV-3, with SNB-75 and in the experiment with SR was > 100 µM (inactive) throughout.
